Source: ChEMBL document CHEMBL1154789, “Novel cyclic-imide peptidomimetics as aminopeptidase N inhibitors. Design, chemistry and activity evaluation. Part I” (Eur J Med Chem, 2009)
pIC50: −log10 of the molar value.

Experiments:
H22 = assay: Antimetastatic activity in mouse H22 cells xenografted in mouse assessed as reduction of metastasized nodes at 50 mg/kg, po administered 6 days per week for 2 weeks measured after 1 day last post dose; format: functional; set-up: scale not given: the % may be the effect or the level left
HL-60 = assay: Cytotoxicity against human HL60 cells after 48 hrs by MTT assay; format: functional, cell-based; settings: HL-60, 48 h
Aminopeptidase N = target: T1, Aminopeptidase N (Sus scrofa, UniProt P15145); assay: Inhibition of pig kidney microsomes aminopeptidase N preincubated for 30 mins
T1 sequence (P15145 whole entry): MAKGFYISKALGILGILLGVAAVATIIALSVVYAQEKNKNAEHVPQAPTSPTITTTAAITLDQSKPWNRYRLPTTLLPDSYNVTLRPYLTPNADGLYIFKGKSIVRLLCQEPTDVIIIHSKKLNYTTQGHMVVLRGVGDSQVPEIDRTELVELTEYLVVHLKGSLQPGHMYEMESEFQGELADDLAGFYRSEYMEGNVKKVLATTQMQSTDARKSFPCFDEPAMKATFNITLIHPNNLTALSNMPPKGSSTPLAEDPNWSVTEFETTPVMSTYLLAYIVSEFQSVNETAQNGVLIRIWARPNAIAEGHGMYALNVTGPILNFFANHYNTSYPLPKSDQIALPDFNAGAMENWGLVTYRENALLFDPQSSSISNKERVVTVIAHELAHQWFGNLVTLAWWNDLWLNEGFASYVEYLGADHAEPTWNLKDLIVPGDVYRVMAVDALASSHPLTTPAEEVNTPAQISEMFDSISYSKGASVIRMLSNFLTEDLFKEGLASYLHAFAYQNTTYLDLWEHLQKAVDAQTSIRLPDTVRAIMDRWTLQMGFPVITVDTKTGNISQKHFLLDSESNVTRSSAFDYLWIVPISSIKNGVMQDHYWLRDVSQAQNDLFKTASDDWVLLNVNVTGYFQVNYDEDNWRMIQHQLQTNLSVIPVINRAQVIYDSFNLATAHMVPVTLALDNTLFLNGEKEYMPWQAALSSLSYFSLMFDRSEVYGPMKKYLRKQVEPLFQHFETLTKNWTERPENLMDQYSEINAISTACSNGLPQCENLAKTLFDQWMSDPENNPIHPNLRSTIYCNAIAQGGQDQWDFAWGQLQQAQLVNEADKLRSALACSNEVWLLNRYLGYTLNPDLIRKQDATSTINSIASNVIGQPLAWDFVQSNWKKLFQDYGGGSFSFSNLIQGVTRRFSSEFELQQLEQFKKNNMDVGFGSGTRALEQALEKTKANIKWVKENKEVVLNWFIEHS

SMILES | pIC50 (Aminopeptidase N) | Activity (H22) [%] | pIC50 (HL-60)
COc1cc(C(=O)N[C@H]2CCC(=O)N(CC(=O)NO)C2=O)cc(OC)c1OC | – | 81.56 | 3.87
COC(=O)[C@H](CCCCNC(=O)OCc1ccccc1)NC(=O)CN1C(=O)CC[C@H](NC(=O)c2cc(OC)c(OC)c(OC)c2)C1=O | 4.42 | – | –
COC(=O)[C@H](CCCNC(=N)N[N+](=O)[O-])NC(=O)CN1C(=O)CC[C@H](NC(=O)c2cc(OC)c(OC)c(OC)c2)C1=O | 4.38 | – | 4.07
O=C(CN1C(=O)CC[C@H](NC(=O)c2cc(O)c(O)c(O)c2)C1=O)N[C@@H](Cc1ccccc1)C(=O)O | 4.99 | – | –
COC(=O)[C@@H](CCl)NC(=O)CN1C(=O)CC[C@H](NC(=O)c2cc(OC)c(OC)c(OC)c2)C1=O | 4.30 | – | –
O=C(O)CNC(=O)CN1C(=O)CC[C@H](NC(=O)c2cc(O)c(O)c(O)c2)C1=O | 4.20 | – | –
COC(=O)CC(NC(=O)CN1C(=O)CC[C@H](NC(=O)c2cc(OC)c(OC)c(OC)c2)C1=O)C(=O)OC (single isomer, unassigned) | 4.66 | – | –
CC(C)C[C@H](NC(=O)[C@@H](O)[C@H](N)Cc1ccccc1)C(=O)O [UBENIMEX] | – | 60.25 | 3.61

Continued by rising pIC50 (Aminopeptidase N), values first:

pIC50 (Aminopeptidase N) | SMILES | Activity (H22) [%] | pIC50 (HL-60)
4.26 | CC(C)C[C@H](NC(=O)CN1C(=O)CC[C@H](NC(=O)c2cc(O)c(O)c(O)c2)C1=O)C(=O)O | – | –
4.30 | COC(=O)[C@@H](CS)NC(=O)CN1C(=O)CC[C@H](NC(=O)c2cc(OC)c(OC)c(OC)c2)C1=O | – | –
4.33 | O=C(O)CN1C(=O)CC[C@H](NC(=O)c2cc(O)c(O)c(O)c2)C1=O | – | –
5.37 | O=C(CN1C(=O)CC[C@H](NC(=O)c2cc(O)c(O)c(O)c2)C1=O)NO | – | –
